# Test system: PKC delta (pPKCd, S299)
# Test: pPKC delta in tumour biopsies (Sally Sue microcapillary electrophoresis)
# Type: in vivo, human
# Conditions: QD schedule
# Source text: Fresh metastatic tumour biopsies were collected at baseline (prior to first dose) and on treatment at C1D15 to evaluate the modulation of PKC substrate proteins in tumours following exposure to LXS196 and to perform exploratory transcriptome and targeted DNA sequencing. Whole blood samples (peripheral blood mononuclear cells; PBMCs) were collected pre-dose on C1D1 and D15, and at various time points post-dose on C1D1, D2, D3, D15 and D16 to evaluate the modulation of PKC substrate proteins in a surrogate tissue. Owing to the exploratory nature of this phase I study, formal statistical tests were not planned to be performed. Data are presented using descriptive statistics and visualisations. Continuous variables are described with the mean and range. […]
# Custom assays were developed to measure the status of the PKC pathway. In brief, tumour tissue was homogenised in lysis buffer, and total protein concentrations were determined using a bicinchoninic acid (BCA) assay (Pierce). […] Total and phosphorylated PKCdelta (PKCd; pPKCd, phosphorylated at S299) levels were determined using microcapillary electrophoresis on the Sally Sue platform (Protein Simple, San Jose, CA, USA). Area under the peaks corresponding to the target was measured and used for further calculation. […]
# Total and phosphorylated PKC delta were measured in all feasible tumour biopsies. […] The normalised PKC delta is calculated as follows: […]
compound,measurement,value
CC1(N)CCN(c2cccnc2NC(=O)c2nc(-c3ncccc3C(F)(F)F)cnc2N)CC1 [LXS196],"pPKC delta, mean (range) percentage change from baseline to C1D15 (normalised ratio)","−68.1 (−91.4, −28.6) %"

# — PMC10006169, “A phase I trial of LXS196, a protein kinase C (PKC) inhibitor, for metastatic uveal melanoma” (British Journal of Cancer, 2023)
